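In this assay, cells in 96-well plates receive the compound at five concentrations for 48 hours. Endpoints are linearly interpolated between the surrounding concentrations. TGI: total growth inhibition.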
Columns and labels:
Assay in all cases: DTP human tumour cell line panel, 48 h
SF-539 CNS = system: SF-539 CNS
DMS 114 small cell lung = system: DMS 114 small cell lung
COLO 205 colon = system: COLO 205 colon
SW-620 colon = system: SW-620 colon
HL-60(TB) leukemia = system: HL-60(TB) leukemia
MOLT-4 leukemia = system: MOLT-4 leukemia
NCI-H226 lung = system: NCI-H226 lung
HCT-116 colon = system: HCT-116 colon
M14 melanoma = system: M14 melanoma

Measured: TGI

O=C1c2ccccc2N(O)C1(c1ccccc1)C1CCCC=C1N1CCOCC1 (centres undefined)
> 100 µM: all assays above
